Earlier results in patent publication US8680078B2, “Stable ophthalmic formulations” (Medivis SRL, priority 2008, dated 2014).
Read-outs that look alike come from different tables or passages of the source.

How the values were obtained:
[1] = pH of 5.6

| Compound | time taken by the concentration of latanoprost to drop to 90% of an initial content (50° C.) | time taken by the concentration of latanoprost to drop to 90% of an initial content (75° C.) | maximum solubility [1] |
| --- | --- | --- | --- |
| CC(C)OC(=O)CCC/C=C\C[C@@H]1[C@@H](CC[C@@H](O)CCc2ccccc2)[C@H](O)C[C@@H]1O [Latanoprost, latanoprost] | 198 h | 32 h |  |
| CCN[C@H]1C[C@H](C)S(=O)(=O)c2sc(S(N)(=O)=O)cc21.Cl [dorzolamide hydrochloride] |  |  | about 50 mg/mL |
